Patent US11472799B2, “Serine threonine kinase (AKT) degradation / disruption compounds and methods of use” (Icahn School of Medicine at Mount Sinai, priority 2018, dated 2022)

Legend:
AKT [1] = experiment: Western blot of AKT protein levels in PC-3 cells; type: cell-based, human; details: for suppression of AKT protein level and AKT activity: 1 μM (FIGS. 11 and 12)
Description: PC-3, U87MG, HCC1143, MDA-MB-231, MDA-MB-468, BT474 and MCF-7 cell lines were purchased from ATCC. Cell lines were regularly tested in the lab for mycoplasma. All cells were cultured at 37° C. and 5% CO2. PC-3, U87MG, MDA-MB-231, MCF-7 and BT474 cells were cultured in 1×DMEM (Corning, 10-013-CV) with 10% fetal bovine serum (Atlanta Biologicals S11150) and 1× Penicillin/Streptomycin. HCC1143 cells were cultured in RPMI (Corning, 10-040-CV) medium with 10% fetal bovine serum (Atlanta Biologicals S11150) and 1× Penicillin/Streptomycin. Cells were split using 0.05% or 0.25% trypsin (Corning 25-051-Cl or 25-053-Cl, respectively) before they reached full confluence and media was changed every 3-4 days. Cells were treated with compounds individually at different concentrations for 24 hrs. Cells were treated with DMSO, VHL, or PML alone as controls.
(§1) Cells were lysed in 2× sample buffer (125 mM Tris-HCl at pH 6.8, 10% βME, 2% SDS, 20% glycerol, 0.05% Bromophenol Blue, 8 M urea). Protein lysates were loaded into 4-12% Bis-Tris gels and resolved by electrophoresis. Samples were then blotted on PVDF membrane (Millipore IPVH00010) using the wet transfer technique (Invitrogen). Membranes were blocked in 5% milk-TBST for 1 hour, washed in TBST for 10 min, and incubated in primary antibody in 5% milk-TBST or 5% BSA-TBST at 4° C. for 16 h. Membranes were rinsed (3×6 min) in TBST and incubated in horseradish peroxidase-conjugated secondary antibodies in 5% milk-TBST for 1 hour and rinsed again in TBST (3×6 min). Membranes were visualized using the chemiluminescence system (Thermo 34080, 37075) on autoradiography film (Denville E3018). Primary Antibodies: R-actin (Sigma A5316), p-AKT (Ser473 CST-9721), total AKT (CST-9272), p-S6 (Ser240/244, CST-5364), p-PRAS40 (Thr246, CST-2997). Secondary Antibodies: Mouse (Thermo 31432), Rabbit (Thermo 31460).

AKT [2] = experiment: Western blot of AKT protein levels in U87MG cells; type: cell-based; details: 0.3 μM, 1 μM, 3 μM, or 10 μM for 24 h
Description: as §1

AKT [3] = experiment: Western blot of AKT protein levels in MDA-MB-468 cells; type: cell-based; details: 0.3 μM, 1 μM, 3 μM, or 10 μM for 24 h
Description: as §1

AKT [4] = experiment: Western blot of AKT protein levels and downstream signaling in BT474 cells; type: cell-based, human
Summary of the method: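 Lysates were immunoblotted with chemiluminescent detection for p-AKT Ser473, total AKT, p-S6 Ser240/244 and p-PRAS40 Thr246, using actin as loading control.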

AKT [5] = experiment: Time course Western blot of AKT degradation in BT474 cells; type: cell-based, human; details: for time point for the most significant AKT degradation: BT474 cells (FIGS. 2 and 5); for time-dependent reduction of AKT, p-AKT, P-PRAS40 (T246), and P-S6 (S240/244) protein levels: BT474 cells, 1 μM
Description: as §1

[6] = 0.3 μM, 1 μM, 3 μM, or 10 μM for 24 h (FIG. 4B)

NC1(C(=O)N[C@@H](CCO)c2ccc(Cl)cc2)CCN(c2ncnc3[nH]ccc23)CC1 [AZD5363, 4-amino-N-[(1S)-1-(4-chlorophenyl)-3-hydroxypropyl]-1-(7H-pyrrolo[2,3-d]pyrimidin-4-yl)piperidine-4-carboxamide, reference compound]
AKT protein levels (AKT [1]; [6]): no effect
pAKT levels (AKT [1]; [6]): increased
AKT protein levels (AKT [2]): no effect
pAKT levels (AKT [2]): increased
AKT protein levels (AKT [3]): no effect
pAKT levels (AKT [3]): increased
AKT protein levels (AKT [4]; 1 μM, 5 μM, or 10 μM for 24 h): no effect
pAKT levels (AKT [4]; 1 μM, 5 μM, or 10 μM for 24 h): increased
AKT protein levels (AKT [4]; 0.01-1 μM for 24 h (FIG. 4A)): no effect
pAKT levels (AKT [4]; 0.01-1 μM for 24 h (FIG. 4A)): increased

Cc1ncsc1-c1ccc([C@H](C)NC(=O)[C@@H]2C[C@@H](O)CN2C(=O)[C@@H](NC(=O)CCCCCCCCCCNC(=O)CCNC[C@@H](C(=O)N2CCN(c3ncnc4c3[C@H](C)C[C@H]4O)CC2)c2ccc(Cl)cc2)C(C)(C)C)cc1 [XF042-162, (2S,4R)-1-((S)-2-(11-(3-(((S)-2-(4-chlorophenyl)-3-(4-((5R,7R)-7-hydroxy-5-methyl-6,7-dihydro-5H-cyclopenta[d]pyrimidin-4-yl)piperazin-1-yl)-3-oxopropyl)amino)propanamido)undecanamido)-3,3-dimethylbutanoyl)-4-hydroxy-N-((S)-1-(4-(4-methylthiazol-5-yl)phenyl)ethyl)pyrrolidine-2-carboxamide]
time point for the most significant AKT degradation (AKT [5]): 24 h
time-dependent reduction of AKT, p-AKT, P-PRAS40 (T246), and P-S6 (S240/244) protein levels (AKT [5]): time-dependently reduce

Cc1ncsc1-c1ccc(CNC(=O)[C@@H]2C[C@@H](O)CN2C(=O)[C@@H](NC(=O)CCCCCCC(=O)NCCc2cccc(-c3ccc4nc(-c5cccnc5N)n(-c5ccc(C6(N)CCC6)cc5)c4n3)c2)C(C)(C)C)cc1 [XF067-44, N^1-(3-(3-(4-(1-aminocycIobutyl)phenyl)-2-(2-aminopyridin-3-yl)-3H-imidazo[4,5-b]pyridin-5-yl)phenethyl)-N^8-((S)-1-((2S,4R)-4-hydroxy-2-((4-(4-methylthiazol-5-yl)benzyl)carbamoyl)pyrrolidin-1-yl)-3,3-dimethyl-1-oxobutan-2-yl)octanediamide]
suppression of AKT protein level and AKT activity (AKT [1]): effective in suppressing AKT protein level and AKT activity

Cc1ncsc1-c1ccc(CNC(=O)[C@@H]2C[C@@H](O)CN2C(=O)[C@@H](NC(=O)CCCCCCCCCC(=O)NCCc2cccc(-c3ccc4nc(-c5cccnc5N)n(-c5ccc(C6(N)CCC6)cc5)c4n3)c2)C(C)(C)C)cc1 [XF067-47, N^1-(3-(3-(4-(1-aminocyclobutyl)phenyl)-2-(2-aminopyridin-3-yl)-3H-imidazo[4,5-b]pyridin-5-yl)phenethyl)-N^11-((S)-1-((2S,4R)-4-hydroxy-2-((4-(4-methylthiazol-5-yl)benzyl)carbamoyl)pyrrolidin-1-yl)-3,3-dimethyl-1-oxobutan-2-yl)undecanediamide]
suppression of AKT protein level and AKT activity (AKT [1]): effective in suppressing AKT protein level and AKT activity

Cc1ncsc1-c1ccc(CNC(=O)[C@@H]2C[C@@H](O)CN2C(=O)[C@@H](NC(=O)CCCCCCCCNC(=O)CCc2cccc(-c3ccc4nc(-c5cccnc5N)n(-c5ccc(C6(N)CCC6)cc5)c4n3)c2)C(C)(C)C)cc1 [XF067-16, (2S,4R)-1-((S)-2-(9-(3-(3-(3-(4-(1-aminocyclobutyl)phenyl)-2-(2-aminopyridin-3-yl)-3H-imidazo[4,5-b]pyridin-5-yl)phenyl)propanamido)nonanamido)-3,3-dimethylbutanoyl)-4-hydroxy-N-(4-(4-methylthiazol-5-yl)benzyl)pyrrolidine-2-carboxamide]
suppression of AKT protein level and AKT activity (AKT [1]): effective in suppressing AKT protein level and AKT activity

Cc1ncsc1-c1ccc(CNC(=O)[C@@H]2C[C@@H](O)CN2C(=O)[C@@H](NC(=O)CCCCCCCCCCNC(=O)CCc2cccc(-c3ccc4nc(-c5cccnc5N)n(-c5ccc(C6(N)CCC6)cc5)c4n3)c2)C(C)(C)C)cc1 [XF067-18, (2S,4R)-1-((S)-2-(11-(3-(3-(3-(4-(1-aminocyclobutyl)phenyl)-2-(2-aminopyridin-3-yl)-3H-imidazo[4,5-b]pyridin-5-yl)phenyl)propanamido)undecanamido)-3,3-dimethylbutanoyl)-4-hydroxy-N-(4-(4-methylthiazol-5-yl)benzyl)pyrrolidine-2-carboxamide]
suppression of AKT protein level and AKT activity (AKT [1]): effective in suppressing AKT protein level and AKT activity

CCn1c(-c2nonc2N)nc2c(C#CC(C)(C)O)ncc(OCCCNCCCC(=O)NCCCCCCCCCCC(=O)N[C@H](C(=O)N3C[C@H](O)C[C@H]3C(=O)NCc3ccc(-c4scnc4C)cc3)C(C)(C)C)c21 [XF067-101, (2S,4R)-1-((S)-2-(11-(4-((3-((2-(4-amino-1,2,5-oxadiazol-3-yl)-1-ethyl-4-(3-hydroxy-3-methylbut-1-yn-1-yl)-1H-imidazo[4,5-c]pyridin-7-yl)oxy)propyl)amino)butanamido)undecanamido)-3,3-dimethylbutanoyl)-4-hydroxy-N-(4-(4-methylthiazol-5-yl)benzyl)pyrrolidine-2-carboxamide]
suppression of AKT protein level and AKT activity (AKT [1]): effective in suppressing AKT protein level and AKT activity

Cc1ncsc1-c1ccc(CNC(=O)[C@@H]2C[C@@H](O)CN2C(=O)[C@@H](NC(=O)CCCCCCCCCCNC(=O)CCNC[C@@H](C(=O)N2CCN(c3ncnc4c3[C@H](C)C[C@H]4O)CC2)c2ccc(Cl)cc2)C(C)(C)C)cc1 [XF038-166A, (2S,4R)-1-((S)-2-(11-(3-(((S)-2-(4-chlorophenyl)-3-(4-((5R,7R)-7-hydroxy-5-methyl-6,7-dihydro-5H-cyclopenta[d]pyrimidin-4-yl)piperazin-1-yl)-3-oxopropyl)amino)propanamido)undecanamido)-3,3-dimethylbutanoyl)-4-hydroxy-N-(4-(4-methylthiazol-5-yl)benzyl)pyrrolidine-2-carboxamide]
suppression of AKT protein level and AKT activity (AKT [4]; Western blot (FIGS. 1, 3, 4)): effective in suppressing both AKT protein level and AKT activity
time point for the most significant AKT degradation (AKT [5]): 24 h
time-dependent reduction of AKT, p-AKT, P-PRAS40 (T246), and P-S6 (S240/244) protein levels (AKT [5]): time-dependently reduces

Cc1ncsc1-c1ccc(CNC(=O)[C@@H]2C[C@@H](O)CN2C(=O)[C@@H](NC(=O)CCCCCCCNC(=O)CCc2cccc(-c3ccc4nc(-c5cccnc5N)n(-c5ccc(C6(N)CCC6)cc5)c4n3)c2)C(C)(C)C)cc1 [XF067-15, (2S,4R)-1-((S)-2-(8-(3-(3-(3-(4-(1-aminocyclobutyl)phenyl)-2-(2-aminopyridin-3-yl)-3H-imidazo[4,5-b]pyridin-5-yl)phenyl)propanamido)octanamido)-3,3-dimethylbutanoyl)-4-hydroxy-N-(4-(4-methylthiazol-5-yl)benzyl)pyrrolidine-2-carboxamide]
suppression of AKT protein level and AKT activity (AKT [1]): effective in suppressing AKT protein level and AKT activity
